{
  "source": "the supplement of paper PMC10307832",
  "assay_in_all_cases": "relative viability (nuclei count vs DMSO), 5 days (fraction); higher = more cells survive",
  "key": {"H3255": {"system": "H3255", "summary_of_the_method": "(§1)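 A single step with final 0.05% Triton X-100, 1% formaldehyde and 1 ug/ml Hoechst fixed the cells and stained nuclei 5 days after treatment. Lung cancer cell lines in 1536-well plates had been treated by pin tool the day after seeding with one drug alone or a fixed anchor-drug dose plus five library-drug doses (not always all listed) in √10 steps, and nuclei were counted on 4× images. Relative viability is the ratio of nuclei in treated wells to nuclei in vehicle wells, taken as the median of duplicate plates.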"}, "NCI-H650": {"system": "NCI-H650", "summary_of_the_method": "as §1"}, "NCI-H1650": {"system": "NCI-H1650", "summary_of_the_method": "as §1"}, "NCI-H838": {"system": "NCI-H838", "summary_of_the_method": "as §1"}, "LU99A": {"system": "LU99A", "summary_of_the_method": "as §1"}, "SW 1573": {"system": "SW 1573", "summary_of_the_method": "as §1"}, "PC-3 [JPC-3]": {"system": "PC-3 [JPC-3]", "summary_of_the_method": "as §1"}, "NCI-H460": {"system": "NCI-H460", "summary_of_the_method": "as §1"}, "COR-L23": {"system": "COR-L23", "summary_of_the_method": "as §1"}, "NCI-H1793": {"system": "NCI-H1793", "summary_of_the_method": "as §1"}, "PC-14": {"system": "PC-14", "summary_of_the_method": "as §1"}, "LK-2": {"system": "LK-2", "summary_of_the_method": "as §1"}, "NCI-H1563": {"system": "NCI-H1563", "summary_of_the_method": "as §1"}, "NCI-H727": {"system": "NCI-H727", "summary_of_the_method": "as §1"}, "NCI-H23": {"system": "NCI-H23", "summary_of_the_method": "as §1"}, "NCI-H2347": {"system": "NCI-H2347", "summary_of_the_method": "as §1"}, "HCC-44": {"system": "HCC-44", "summary_of_the_method": "as §1"}, "LCLC-103H": {"system": "LCLC-103H", "summary_of_the_method": "as §1"}, "A-427": {"system": "A-427", "summary_of_the_method": "as §1"}, "NCI-H1944": {"system": "NCI-H1944", "summary_of_the_method": "as §1"}, "201T": {"system": "201T", "summary_of_the_method": "as §1"}, "LCLC-97TM1": {"system": "LCLC-97TM1", "summary_of_the_method": "as §1"}},
  "data": [
    {"smiles": "Oc1nc(-c2ccc(C(F)(F)F)cc2)nc2c1CSCC2", "note": "[XAV939] + CS(=O)(=O)N1CCN(Cc2cc3nc(-c4cccc5[nH]ncc45)nc(N4CCOCC4)c3s2)CC1 [Pictilisib] (partner 1 µM)", "values": [
      {"measurement": "relative viability", "setting": "H3255; first compound 0.08 µM", "value": 0.486},
      {"measurement": "relative viability", "setting": "H3255; first compound 0.253 µM", "value": 0.374},
      {"measurement": "relative viability", "setting": "H3255; first compound 0.8 µM", "value": 0.499},
      {"measurement": "relative viability", "setting": "H3255; first compound 2.53 µM", "value": 0.288},
      {"measurement": "relative viability", "setting": "NCI-H650; first compound 0.08 µM", "value": 0.916},
      {"measurement": "relative viability", "setting": "NCI-H650; first compound 0.253 µM", "value": 1.05},
      {"measurement": "relative viability", "setting": "NCI-H650; first compound 0.8 µM", "value": 0.881},
      {"measurement": "relative viability", "setting": "NCI-H650; first compound 2.53 µM", "value": 0.74},
      {"measurement": "relative viability", "setting": "NCI-H1650; first compound 0.08 µM", "value": 0.587},
      {"measurement": "relative viability", "setting": "NCI-H1650; first compound 0.253 µM", "value": 0.615},
      {"measurement": "relative viability", "setting": "NCI-H1650; first compound 0.8 µM", "value": 0.49},
      {"measurement": "relative viability", "setting": "NCI-H1650; first compound 2.53 µM", "value": 0.394},
      {"measurement": "relative viability", "setting": "NCI-H838; first compound 0.08 µM", "value": 0.441},
      {"measurement": "relative viability", "setting": "NCI-H838; first compound 0.253 µM", "value": 0.374},
      {"measurement": "relative viability", "setting": "NCI-H838; first compound 0.8 µM", "value": 0.343},
      {"measurement": "relative viability", "setting": "NCI-H838; first compound 2.53 µM", "value": 0.246},
      {"measurement": "relative viability", "setting": "LU99A; first compound 0.08 µM", "value": 0.336},
      {"measurement": "relative viability", "setting": "LU99A; first compound 0.253 µM", "value": 0.279},
      {"measurement": "relative viability", "setting": "LU99A; first compound 0.8 µM", "value": 0.305},
      {"measurement": "relative viability", "setting": "LU99A; first compound 2.53 µM", "value": 0.293},
      {"measurement": "relative viability", "setting": "SW 1573; first compound 0.08 µM", "value": 0.542},
      {"measurement": "relative viability", "setting": "SW 1573; first compound 0.253 µM", "value": 0.403},
      {"measurement": "relative viability", "setting": "SW 1573; first compound 0.8 µM", "value": 0.357},
      {"measurement": "relative viability", "setting": "SW 1573; first compound 2.53 µM", "value": 0.392},
      {"measurement": "relative viability", "setting": "PC-3 [JPC-3]; first compound 0.08 µM", "value": 0.681},
      {"measurement": "relative viability", "setting": "PC-3 [JPC-3]; first compound 0.253 µM", "value": 0.602},
      {"measurement": "relative viability", "setting": "PC-3 [JPC-3]; first compound 0.8 µM", "value": 0.663},
      {"measurement": "relative viability", "setting": "PC-3 [JPC-3]; first compound 2.53 µM", "value": 0.697},
      {"measurement": "relative viability", "setting": "NCI-H460; first compound 0.08 µM", "value": 0.362},
      {"measurement": "relative viability", "setting": "NCI-H460; first compound 0.253 µM", "value": 0.332},
      {"measurement": "relative viability", "setting": "NCI-H460; first compound 0.8 µM", "value": 0.284},
      {"measurement": "relative viability", "setting": "NCI-H460; first compound 2.53 µM", "value": 0.334},
      {"measurement": "relative viability", "setting": "COR-L23; first compound 0.08 µM", "value": 1.05},
      {"measurement": "relative viability", "setting": "COR-L23; first compound 0.253 µM", "value": 0.768},
      {"measurement": "relative viability", "setting": "COR-L23; first compound 0.8 µM", "value": 0.757},
      {"measurement": "relative viability", "setting": "COR-L23; first compound 2.53 µM", "value": 0.564},
      {"measurement": "relative viability", "setting": "NCI-H1793; first compound 0.08 µM", "value": 0.344},
      {"measurement": "relative viability", "setting": "NCI-H1793; first compound 0.253 µM", "value": 0.308},
      {"measurement": "relative viability", "setting": "NCI-H1793; first compound 0.8 µM", "value": 0.308},
      {"measurement": "relative viability", "setting": "NCI-H1793; first compound 2.53 µM", "value": 0.363},
      {"measurement": "relative viability", "setting": "PC-14; first compound 0.08 µM", "value": 0.859},
      {"measurement": "relative viability", "setting": "PC-14; first compound 0.253 µM", "value": 0.662},
      {"measurement": "relative viability", "setting": "PC-14; first compound 0.8 µM", "value": 0.767},
      {"measurement": "relative viability", "setting": "PC-14; first compound 2.53 µM", "value": 0.386},
      {"measurement": "relative viability", "setting": "LK-2; first compound 0.08 µM", "value": 0.565},
      {"measurement": "relative viability", "setting": "LK-2; first compound 0.253 µM", "value": 0.505},
      {"measurement": "relative viability", "setting": "LK-2; first compound 0.8 µM", "value": 0.643},
      {"measurement": "relative viability", "setting": "LK-2; first compound 2.53 µM", "value": 0.607},
      {"measurement": "relative viability", "setting": "NCI-H1563; first compound 0.08 µM", "value": 0.645},
      {"measurement": "relative viability", "setting": "NCI-H1563; first compound 0.253 µM", "value": 0.656},
      {"measurement": "relative viability", "setting": "NCI-H1563; first compound 0.8 µM", "value": 0.605},
      {"measurement": "relative viability", "setting": "NCI-H1563; first compound 2.53 µM", "value": 0.611},
      {"measurement": "relative viability", "setting": "NCI-H727; first compound 0.08 µM", "value": 0.367},
      {"measurement": "relative viability", "setting": "NCI-H727; first compound 0.253 µM", "value": 0.324},
      {"measurement": "relative viability", "setting": "NCI-H727; first compound 0.8 µM", "value": 0.415},
      {"measurement": "relative viability", "setting": "NCI-H727; first compound 2.53 µM", "value": 0.357},
      {"measurement": "relative viability", "setting": "NCI-H23; first compound 0.08 µM", "value": 0.46},
      {"measurement": "relative viability", "setting": "NCI-H23; first compound 0.253 µM", "value": 0.351},
      {"measurement": "relative viability", "setting": "NCI-H23; first compound 0.8 µM", "value": 0.33},
      {"measurement": "relative viability", "setting": "NCI-H23; first compound 2.53 µM", "value": 0.33},
      {"measurement": "relative viability", "setting": "NCI-H2347; first compound 0.08 µM", "value": 0.681},
      {"measurement": "relative viability", "setting": "NCI-H2347; first compound 0.253 µM", "value": 0.636},
      {"measurement": "relative viability", "setting": "NCI-H2347; first compound 0.8 µM", "value": 0.418},
      {"measurement": "relative viability", "setting": "NCI-H2347; first compound 2.53 µM", "value": 0.523},
      {"measurement": "relative viability", "setting": "HCC-44; first compound 0.08 µM", "value": 0.748},
      {"measurement": "relative viability", "setting": "HCC-44; first compound 0.253 µM", "value": 0.627},
      {"measurement": "relative viability", "setting": "HCC-44; first compound 0.8 µM", "value": 0.577},
      {"measurement": "relative viability", "setting": "HCC-44; first compound 2.53 µM", "value": 0.636},
      {"measurement": "relative viability", "setting": "LCLC-103H; first compound 0.08 µM", "value": 0.724},
      {"measurement": "relative viability", "setting": "LCLC-103H; first compound 0.253 µM", "value": 0.483},
      {"measurement": "relative viability", "setting": "LCLC-103H; first compound 0.8 µM", "value": 0.601},
      {"measurement": "relative viability", "setting": "LCLC-103H; first compound 2.53 µM", "value": 0.498},
      {"measurement": "relative viability", "setting": "A-427; first compound 0.08 µM", "value": 0.962},
      {"measurement": "relative viability", "setting": "A-427; first compound 0.253 µM", "value": 0.63},
      {"measurement": "relative viability", "setting": "A-427; first compound 0.8 µM", "value": 0.596},
      {"measurement": "relative viability", "setting": "A-427; first compound 2.53 µM", "value": 0.65},
      {"measurement": "relative viability", "setting": "NCI-H1944; first compound 0.08 µM", "value": 0.37},
      {"measurement": "relative viability", "setting": "NCI-H1944; first compound 0.253 µM", "value": 0.197},
      {"measurement": "relative viability", "setting": "NCI-H1944; first compound 0.8 µM", "value": 0.348},
      {"measurement": "relative viability", "setting": "NCI-H1944; first compound 2.53 µM", "value": 0.287},
      {"measurement": "relative viability", "setting": "201T; first compound 0.08 µM", "value": 0.673},
      {"measurement": "relative viability", "setting": "201T; first compound 0.253 µM", "value": 0.593},
      {"measurement": "relative viability", "setting": "201T; first compound 0.8 µM", "value": 0.583},
      {"measurement": "relative viability", "setting": "201T; first compound 2.53 µM", "value": 0.525},
      {"measurement": "relative viability", "setting": "LCLC-97TM1; first compound 0.08 µM", "value": 0.169},
      {"measurement": "relative viability", "setting": "LCLC-97TM1; first compound 0.253 µM", "value": 0.198},
      {"measurement": "relative viability", "setting": "LCLC-97TM1; first compound 0.8 µM", "value": 0.165},
      {"measurement": "relative viability", "setting": "LCLC-97TM1; first compound 2.53 µM", "value": 0.18}
    ]}
  ]
}
